Drawing on PubChem BioAssay AID298 (DTP/NCI, 2004), this text covers T/C for 17 compounds.

The experiment concerns MX-1 breast xenograft, intrarenal, nude mice, tumor weight. In words: NCI In Vivo Anticancer Drug Screen. Data for tumor model Human Mammary Carcinoma MX-1 Xenograft (intrarenal inoculation) in NU/NU BALB/C (nude) mice. Particulars: endpoint: mean tumor weight change, higher = larger tumour. A digest of the protocol: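 Transplantable tumors established in mice; animals dosed with compound or vehicle; survival or tumor size then recorded. Result reported as treated (T) divided by vehicle control (C).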

Where [1] appears, read: dose: 150.0 mg/kg/injection, schedule: Q04DX003 (sc), vehicle: saline.
Where [2] appears, read: dose: 300.0 mg/kg/injection, schedule: Q04DX003 (sc), vehicle: saline.
[3] abbreviates: dose: 600.0 mg/kg/injection, schedule: Q04DX003 (sc), vehicle: saline.
Where [4] appears, read: dose: 100.0 mg/kg/injection, schedule: Q04DX003 (ip), vehicle: Klucel (hydroxypropylcellulose) (HPC).
Setting [5] is: dose: 200.0 mg/kg/injection, schedule: Q04DX003 (ip), vehicle: Klucel (hydroxypropylcellulose) (HPC).
The mark [6] stands for this setting: dose: 400.0 mg/kg/injection, schedule: Q04DX003 (ip), vehicle: Klucel (hydroxypropylcellulose) (HPC).
Setting [7] is: dose: 200.0 mg/kg/injection, schedule: Q04DX003 (sc), vehicle: saline.
[8] abbreviates: dose: 400.0 mg/kg/injection, schedule: Q04DX003 (sc), vehicle: saline.

The structures appear in SMILES notation. “And” between values parts separate entries of the source, which are not always exact repeats. Equal entries are not always repeated. Records with an inconclusive call do not appear.

For the compound `Cc1c(-c2ccc(-c3ccccc3F)cc2)nc2ccc(F)cc2c1C(=O)O`, the T/C (dose: 6.9 mg/kg/injection, schedule: Q01DX009 (ip), vehicle: water) was 15 % of control and 19 % of control; the T/C (dose: 11.5 mg/kg/injection, schedule: Q01DX009 (ip), vehicle: water) was 8 % of control and 18 % of control; the T/C (dose: 19.2 mg/kg/injection, schedule: Q01DX009 (ip), vehicle: water) was 2 % of control and 12 % of control; the T/C (dose: 32.0 mg/kg/injection, schedule: Q01DX009 (ip), vehicle: water) was 6 % of control and 9 % of control.
Consider `CCC(=O)N(C)[C@@H](C)C(=O)O[C@H]1CC(=O)N(C)c2cc(cc(OC)c2Cl)C/C(C)=C/C=C[C@@H](OC)[C@@]2(O)C[C@H](OC(=O)N2)[C@@H](C)[C@@H]2O[C@@]12C`, for which the T/C (dose: 0.12 mg/kg/injection, schedule: Q04DX003 (sc), vehicle: saline + alcohol) was 100 % of control; the T/C (dose: 0.25 mg/kg/injection, schedule: Q04DX003 (sc), vehicle: saline + alcohol) is 48 % of control; the T/C (dose: 0.5 mg/kg/injection, schedule: Q04DX003 (sc), vehicle: saline + alcohol) is 5 % of control; the T/C (dose: 7.5 micrograms/kg/injection, schedule: Q04DX004 (ip), vehicle: saline + alcohol) was 115 % of control; the T/C (dose: 15.0 micrograms/kg/injection, schedule: Q04DX004 (ip), vehicle: saline + alcohol) is 67 % of control.
Take `COc1cccc2c1C(=O)c1c(O)c3c(c(O)c1C2=O)C[C@](O)(C(=O)CO)CC3OC1CC(N)C(OC2CCCCO2)C(C)O1` (stereo partly specified): the T/C (dose: 7.5 mg/kg/injection, schedule: Q04DX003 (ip), vehicle: water) was 21 % of control.
With `CC1(C)OCC2OC=CC(=O)C2O1` (stereo unspecified), the T/C reads like this: under setting [1], 110 % of control; under setting [2], 97 % of control; under setting [3], 74 % of control.
Take `CN(C)CN1C(=O)S/C(=C2\C(=O)N(CN(C)C)c3ccccc32)C1=O`: the T/C was 102 % of control under setting [4], 100 % of control under setting [5] and 80 % of control under setting [6].
For `O=C1c2ccccc2C(=O)c2c1cn1c2Cc2ccccc2C1`, the T/C was 72 % of control (dose: 50.0 mg/kg/injection, schedule: Q04DX003 (ip), vehicle: Klucel (hydroxypropylcellulose) (HPC)); 37 % of control under setting [4]; 26 % of control under setting [5]; 35 % of control under setting [6].
`CC1(C)COCN1COCCOCN1COCC1(C)C`: the T/C is 77 % of control under setting [7] and 83 % of control under setting [8].
Consider `CC(=O)NO`, for which the T/C runs as follows: (dose: 150.0 mg/kg/injection, schedule: Q04DX003 (ip), vehicle: water) 78 % of control; (dose: 300.0 mg/kg/injection, schedule: Q04DX003 (ip), vehicle: water) 113 % of control; (dose: 600.0 mg/kg/injection, schedule: Q04DX003 (ip), vehicle: water) 79 % of control; (dose: 1200.0 mg/kg/injection, schedule: Q04DX003 (ip), vehicle: water) 74 % of control.
For the compound `CC(=O)OCN(C)C=O`, the T/C is, setting by setting: (dose: 300.0 mg/kg/injection, schedule: Q01DX010 (ip), vehicle: suspension in saline) 105 % of control; (dose: 600.0 mg/kg/injection, schedule: Q01DX010 (ip), vehicle: suspension in saline) 75 % of control; (dose: 600.0 mg/kg/injection, schedule: Q01DX010 (sc), vehicle: saline) 88 % of control; (dose: 1200.0 mg/kg/injection, schedule: Q01DX010 (sc), vehicle: saline) 104 % of control; (dose: 2400.0 mg/kg/injection, schedule: Q01DX010 (sc), vehicle: saline) 78 % of control.
For `C=CC1(C)CC(=O)C2(O)C(C)(O1)C(OC(C)=O)C(O)C1C(C)(C)CCC(O)C12C` (stereo unspecified), the T/C was 159 % of control (dose: 8.0 mg/kg/injection, schedule: Q04DX003 (ip), vehicle: DMSO); 100 % of control and 115 % of control (dose: 16.0 mg/kg/injection, schedule: Q04DX003 (ip), vehicle: DMSO); 109 % of control (dose: 64.0 mg/kg/injection, schedule: Q04DX003 (ip), vehicle: DMSO).
As to `CNc1nc(NC)nc(NC)n1`, the T/C is 156 % of control (dose: 12.5 mg/kg/injection, schedule: Q01DX010 (sc), vehicle: Klucel (hydroxypropylcellulose) (HPC)); 152 % of control (dose: 25.0 mg/kg/injection, schedule: Q01DX010 (sc), vehicle: Klucel (hydroxypropylcellulose) (HPC)); 122 % of control (dose: 50.0 mg/kg/injection, schedule: Q01DX010 (sc), vehicle: Klucel (hydroxypropylcellulose) (HPC)); 83 % of control (dose: 100.0 mg/kg/injection, schedule: Q01DX010 (sc), vehicle: Klucel (hydroxypropylcellulose) (HPC)).
`COC(=O)[C@@]12OC[C@]34[C@H]([C@@H](O)[C@@H]1O)[C@@]1(C)CC(=O)C(O)=C(C)[C@@H]1C[C@H]3OC(=O)[C@H](OC(=O)/C=C(\C)C(C)C)[C@@H]24`: for the setting “dose: 1.0 mg/kg/injection, schedule: Q01DX010 (sc), vehicle: saline + alcohol”, the T/C is 51 % of control.
Consider `C=CC(C)NC(=S)NNC(=S)NC` (stereo unspecified), for which the T/C by setting is: (dose: 300.0 mg/kg/injection, schedule: Q04DX003 (sc), vehicle: saline + alcohol) 85 % of control; (dose: 600.0 mg/kg/injection, schedule: Q04DX003 (sc), vehicle: saline + alcohol) 58 % of control; (dose: 1200.0 mg/kg/injection, schedule: Q04DX003 (sc), vehicle: saline + alcohol) 99 % of control.
Regarding `Nc1ncn(C2OC(CO)C(O)C2O)c(=O)n1` (stereo unspecified), the T/C runs as follows: (dose: 0.19 mg/kg/injection, schedule: Q01DX010 (ip), vehicle: saline) 307 % of control; (dose: 0.19 mg/kg/injection, schedule: Q01DX010 (sc), vehicle: saline) 83 % of control; (dose: 0.38 mg/kg/injection, schedule: Q01DX010 (ip), vehicle: saline) 261 % of control; (dose: 0.63 mg/kg/injection, schedule: Q04DX003 (ip), vehicle: saline) 73 % of control; (dose: 0.63 mg/kg/injection, schedule: Q04DX003 (sc), vehicle: saline) 22 % of control; (dose: 0.75 mg/kg/injection, schedule: Q01DX010 (ip), vehicle: saline) 86 % of control. Also, the T/C is, setting by setting: (dose: 0.75 mg/kg/injection, schedule: Q01DX010 (sc), vehicle: saline) 69 % of control; (dose: 1.25 mg/kg/injection, schedule: Q04DX003 (ip), vehicle: saline) 91 % of control; (dose: 1.25 mg/kg/injection, schedule: Q04DX003 (sc), vehicle: saline) 40 % of control; (dose: 1.5 mg/kg/injection, schedule: Q01DX010 (ip), vehicle: saline) 249 % of control; (dose: 2.5 mg/kg/injection, schedule: Q04DX003 (ip), vehicle: saline) 94 % of control; (dose: 2.5 mg/kg/injection, schedule: Q04DX003 (sc), vehicle: saline) 36 % of control. Besides, the T/C is, setting by setting: (dose: 5.0 mg/kg/injection, schedule: Q04DX003 (ip), vehicle: saline) 31 % of control; (dose: 10.0 mg/kg/injection, schedule: Q04DX003 (sc), vehicle: saline) 23 % of control; (dose: 100.0 mg/kg/injection, schedule: Q04DX003 (sc), vehicle: saline) 15 % of control; under setting [1], 21 % of control; under setting [7], 15 % of control; under setting [2], 8 % of control. The T/C was 4 % of control under setting [8]; -45 % of control under setting [3]; -50 % of control (dose: 800.0 mg/kg/injection, schedule: Q04DX003 (sc), vehicle: saline); -43 % of control (dose: 1200.0 mg/kg/injection, schedule: Q04DX003 (sc), vehicle: saline).
Regarding `CCN(CC)Cc1cc2[nH]c3c4ccc(Cl)cc4ncc3c2cc1OC`, the T/C is 92 % of control (dose: 75.0 mg/kg/injection, schedule: Q04DX003 (sc), vehicle: saline with Tween-80) and 73 % of control (dose: 300.0 mg/kg/injection, schedule: Q04DX003 (sc), vehicle: saline with Tween-80).
On to `NC(=O)C1=CC2C3C=CC2(O)C(=O)OC3O1` (stereo unspecified), for which the T/C (dose: 37.5 mg/kg/injection, schedule: Q04DX003 (ip), vehicle: Klucel (hydroxypropylcellulose) (HPC)) was 54 % of control and the T/C (dose: 75.0 mg/kg/injection, schedule: Q04DX003 (ip), vehicle: Klucel (hydroxypropylcellulose) (HPC)) was 42 % of control.
In the case of `CCCNC1=C(C)C(=O)C2=C(C1=O)[C@H](COC(N)=O)[C@]1(OC)[C@@H]3N[C@@H]3CN21`, the T/C by setting is: (dose: 3.0 mg/kg/injection, schedule: Q04DX003 (sc), vehicle: saline) 13 % of control; (dose: 6.0 mg/kg/injection, schedule: Q04DX003 (sc), vehicle: saline) -77 % of control; (dose: 12.0 mg/kg/injection, schedule: Q04DX003 (sc), vehicle: saline) -100 % of control.
